“Also recorded” adds a separate entry of the source.
Tested on: differentiated SH-SY5Y cells
Assay: Uptake of GFP-α-Syn from conditioned medium
Format: cell-based
Settings: 100 μM GM1, 24 hrs, conditioned medium of MN9D cells expressing GFP-tagged human WT α-Syn
Experimental: It has recently become appreciated that cell-to-cell transfer of α-Syn may be an important factor in the progression of synucelinopathies. Cell-to-cell transfer of α-Syn can occur as free α-Syn or as α-Sy-containing exosomes. Herein, a preliminary study was conducted to assess the extent to which GM1 can influence α-Syn release and/or uptake by neighboring cells. MIN9D dopaminergic cells stably expressing human WT α-Syn tagged with GFP were cultured to ˜90% confluency and shifted to serum free media for 48 hours to generate conditioned medium (CM), which was collected, spun at 1000 rpm for 10 minutes and filtered through a sterile […] filter. Normal SH-SY5Y cells (ATCC) were plated in 8 well chamber slides and differentiated in 10 μM retinoic acid for 7 days. Sterile CM or regular medium were used to replace 50% of the medium in each well. The cells were grown in the CM for 24 hours in presence or absence of 100 μM GM1, fixed in 4% paraformaldehyde for 10 minutes, and processed for enhanced visualization of GFP using GFP immunofluorescence.

GM1 ganglioside
uptake of GFP-α-Syn into SH-SY5Y cells: reduced levels of GFP-α-Syn; also recorded: reduced uptake of GFP-α-Syn
